Structures are written as SMILES. The source made the active and inactive calls.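 The calls were made as follows: active = no phosphorylated c-Jun band on immunoblot of thapsigargin-stressed cells, like the unstressed control; inactive = a phosphorylated c-Jun band visible, like the stressed control.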

The subject of this test is CSM14.1 cells, phospho-c-Jun Western blot, thapsigargin. Description: inhibitors of thapsigargin-driven c-Jun phosphorylation, mechanism study for ER stress cell death inhibitors, CSM14.1 cells, Western blot (AID 1360).
For `COc1ccc(C2CC(=O)C3=C(C2)Nc2ccccc2NC3c2cccc(Br)c2)cc1OC` (stereo unspecified), the outcome was active.
The value for `CCCOc1ccc(C2Nc3ccccc3NC3=C2C(=O)CC(c2ccc(OC)c(OC)c2)C3)cc1` (stereo unspecified) was “active”; that for `CCOc1cccc(C2Nc3ccccc3NC3=C2C(=O)CC(c2ccc(OC)cc2)C3)c1` (stereo unspecified) was “active”; that for `CSc1ccc(C2Nc3ccccc3NC3=C2C(=O)CC(c2ccccc2)C3)cc1` (stereo unspecified) was “active”.
The value for `COc1ccc(C2CC(=O)C3=C(C2)Nc2ccccc2NC3c2cccc(Oc3ccccc3)c2)cc1OC` (stereo unspecified) was “active”; that for `O=C1CC(c2ccccc2)CC2=C1C(c1c(F)cccc1Cl)Nc1ccccc1N2` (stereo unspecified) was “active”; that for `CCOc1cc(C2Nc3ccccc3NC3=C2C(=O)CC(c2ccc(OC)cc2)C3)cc(Cl)c1O` (stereo unspecified) was “active”.
To `COc1ccc(C2CC(=O)C3=C(C2)Nc2ccccc2NC3c2ccccc2C(F)(F)F)cc1OC` (stereo unspecified) belongs “active”; to `CC1(C)CC(=O)C2=C(C1)Nc1ccccc1NC2c1ccc(-c2ccccc2)cc1` (stereo unspecified), “active”.
In the case of `COc1ccc(C2CC(=O)C3=C(C2)Nc2ccccc2NC3c2cc(C)ccc2C)cc1` (stereo unspecified), the result was active.
The value for `COc1ccc(C2CC(=O)C3=C(C2)Nc2ccccc2NC3c2cccc(C(F)(F)F)c2)cc1OC` (stereo unspecified) was “active”.

Values taken from PubChem BioAssay AID1360 (Sanford-Burnham Center for Chemical Genomics, 2008).
